From ChEMBL document CHEMBL3352659, “Indolinone-based acetylcholinesterase inhibitors: synthesis, biological activity and molecular modeling” (Eur J Med Chem, 2014) come the findings set out here.

The target of test [1] is T1, Acetylcholinesterase (Electrophorus electricus, UniProt O42275). As to the kind of experiment: Inhibition of electric eel AChE using acetylthiocholine iodide substrate by Ellman method based spectrophotometry.
Test [2] in a line: Selectivity index, ratio of IC50 for equine serum BuChE to IC50 for electric eel AChE.
The target of another test is Cholinesterase (Equus caballus, UniProt P81908). As to the kind of experiment: Inhibition of equine serum BuChE using butyrylthiocholine iodide substrate by Ellman method based spectrophotometry.
The target in test [3] is T1, Acetylcholinesterase. In words: Mixed type inhibition of electric eel AChE using acetylthiocholine iodide substrate by Lineweaver-Burk plot analysis.

Sequence of Cholinesterase (P81908 whole entry): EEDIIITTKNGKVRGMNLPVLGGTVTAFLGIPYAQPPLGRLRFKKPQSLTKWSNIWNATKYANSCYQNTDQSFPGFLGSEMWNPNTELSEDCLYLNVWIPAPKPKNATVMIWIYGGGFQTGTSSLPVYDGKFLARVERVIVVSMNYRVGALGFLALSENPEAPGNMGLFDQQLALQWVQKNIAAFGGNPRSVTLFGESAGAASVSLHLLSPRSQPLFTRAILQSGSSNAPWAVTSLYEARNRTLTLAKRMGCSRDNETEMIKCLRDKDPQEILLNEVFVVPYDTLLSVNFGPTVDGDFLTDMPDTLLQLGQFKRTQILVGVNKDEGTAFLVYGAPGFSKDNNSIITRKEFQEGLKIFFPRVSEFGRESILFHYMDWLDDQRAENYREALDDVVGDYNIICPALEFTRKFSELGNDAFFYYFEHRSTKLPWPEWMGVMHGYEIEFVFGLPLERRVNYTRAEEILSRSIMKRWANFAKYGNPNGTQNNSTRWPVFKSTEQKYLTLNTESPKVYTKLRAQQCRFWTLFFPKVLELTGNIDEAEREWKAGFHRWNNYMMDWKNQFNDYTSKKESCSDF
T1 sequence (O42275 whole entry): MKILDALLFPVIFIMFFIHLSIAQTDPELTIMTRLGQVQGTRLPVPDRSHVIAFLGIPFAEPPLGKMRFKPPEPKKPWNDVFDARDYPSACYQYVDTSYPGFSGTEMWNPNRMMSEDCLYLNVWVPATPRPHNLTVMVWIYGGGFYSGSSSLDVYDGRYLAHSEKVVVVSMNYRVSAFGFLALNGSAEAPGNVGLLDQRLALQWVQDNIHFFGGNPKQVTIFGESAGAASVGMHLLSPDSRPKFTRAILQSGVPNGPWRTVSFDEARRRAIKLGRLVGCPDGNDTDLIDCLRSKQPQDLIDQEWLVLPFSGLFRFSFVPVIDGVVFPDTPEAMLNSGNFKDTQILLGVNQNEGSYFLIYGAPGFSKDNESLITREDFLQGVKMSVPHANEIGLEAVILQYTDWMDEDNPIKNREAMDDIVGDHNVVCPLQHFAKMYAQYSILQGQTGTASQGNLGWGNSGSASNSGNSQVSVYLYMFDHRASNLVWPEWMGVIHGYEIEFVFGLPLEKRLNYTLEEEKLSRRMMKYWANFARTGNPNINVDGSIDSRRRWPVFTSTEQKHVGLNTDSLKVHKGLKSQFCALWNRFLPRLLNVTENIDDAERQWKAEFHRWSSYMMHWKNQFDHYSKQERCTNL

Usually IC50 stands for the concentration that inhibits the measured activity by half. On to `O=C1Nc2ccccc2/C1=C\c1cc[n+](Cc2ccc(CCl)cc2)cc1`, for which the IC50 against Acetylcholinesterase [1] is 103 nM; against Cholinesterase, 1000 nM. Besides, the Ratio IC50 in test [2] amounted to 9.67.

For the compound `COc1cccc(C[n+]2ccc(/C=C3/C(=O)Nc4ccccc43)cc2)c1`, the figures for the IC50 on Acetylcholinesterase [1] and against Cholinesterase were 6.6 nM and 2800 nM, respectively. For the same compound, the Ratio IC50 in test [2] is 424.

Regarding `O=C1Nc2ccccc2/C1=C\c1cc[n+](Cc2ccc(F)cc2)cc1`, the values for the IC50 against Acetylcholinesterase [1] and on Cholinesterase were 677 nM and 3100 nM, respectively. For the same compound, the Ratio IC50 in test [2] came out at 4.58.

Consider `O=C1Nc2ccccc2/C1=C\c1cc[n+](Cc2c(Cl)cccc2Cl)cc1`, for which the IC50 against Acetylcholinesterase [1] came out at 17 nM; at Cholinesterase it was 1500 nM. Also, in test [2], the Ratio IC50 was determined as 88.2.

As for `O=C1Nc2ccccc2/C1=C\c1cc[n+](Cc2ccccc2Br)cc1`, the IC50 at Acetylcholinesterase [1] came out at 1.46 nM; against Cholinesterase, 1230 nM. In addition, the Ratio IC50 in test [2] was 842.

For `O=C1Nc2ccccc2/C1=C\c1cc[n+](Cc2ccc(Cl)cc2Cl)cc1`, the IC50 came to 258 nM against Acetylcholinesterase [1] and 2500 nM at Cholinesterase. Moreover, the Ratio IC50 in test [2] was found to be 9.7.

In the case of `O=C1Nc2ccccc2/C1=C\c1cc[n+](Cc2ccc(Br)cc2)cc1`, the IC50 on Acetylcholinesterase [1] amounted to 653 nM; at Cholinesterase, 1900 nM. Besides, the Ratio IC50 in test [2] turned out to be 2.9.

For the compound `O=C1Nc2ccccc2/C1=C\c1cc[n+](Cc2ccc(Cl)c(Cl)c2)cc1`, the values for the IC50 against Acetylcholinesterase [1] and against Cholinesterase were 29.4 nM and 3300 nM, respectively. Moreover, the Ratio IC50 in test [2] turned out to be 112.

Regarding `O=C1Nc2ccccc2/C1=C\c1cc[n+](Cc2ccc(Cl)cc2)cc1`, the IC50 is 590 nM on Acetylcholinesterase [1] and 2200 nM against Cholinesterase. Besides, the Ratio IC50 in test [2] turned out to be 3.73.

Regarding `O=C1Nc2ccccc2/C1=C\c1cc[n+](Cc2ccccc2)cc1`, the IC50 against Acetylcholinesterase [1] was 47.1 nM; against Cholinesterase, 4300 nM. Further, the Ratio IC50 in test [2] was found to be 91.3.

`O=C1Nc2ccccc2/C1=C\c1cc[n+](Cc2cccc(Br)c2)cc1`: the IC50 against Acetylcholinesterase [1] turned out to be 10.3 nM; against Cholinesterase, 1740 nM. Besides, the Ratio IC50 in test [2] is 169.

`O=C1Nc2ccccc2/C1=C\c1cc[n+](Cc2ccccc2[N+](=O)[O-])cc1`: the results for the IC50 at Acetylcholinesterase [1] and on Cholinesterase were 214 nM and 1600 nM, respectively. The Ratio IC50 in test [2] was found to be 7.5.

As to `O=C1Nc2ccccc2/C1=C\c1cc[n+](Cc2ccccc2F)cc1`, the results for the IC50 on Acetylcholinesterase [1] and at Cholinesterase were 1.25 nM and 4270 nM, respectively. Further, the Ratio IC50 in test [2] came to 3420.

`O=C1Nc2ccccc2/C1=C\c1cc[n+](Cc2ccc([N+](=O)[O-])cc2)cc1`: the IC50 was 744 nM on Acetylcholinesterase [1] and 7500 nM at Cholinesterase. In test [2], the Ratio IC50 is 10.

The Ki is the dissociation constant of the complex between target and ligand, obtained from inhibition or displacement. The low end stands for a stronger hold on the target, the high end for a looser hold on the target. Turning to `O=C1Nc2ccccc2/C1=C\c1cc[n+](Cc2ccccc2Cl)cc1`, the affinity at Acetylcholinesterase [3] corresponds to a Ki of 1.14 nM. For the same compound, the IC50 against Acetylcholinesterase [1] is 0.44 nM; on Cholinesterase, 1370 nM. Besides, the Ratio IC50 in test [2] came to 3110.

Regarding `O=C1Nc2ccccc2/C1=C\c1cc[n+](Cc2cccc(Cl)c2)cc1`, the IC50 at Acetylcholinesterase [1] stood at 4.9 nM; at Cholinesterase it was 1350 nM. Moreover, the Ratio IC50 in test [2] came out at 276.

In the case of `COc1ccc(C[n+]2ccc(/C=C3/C(=O)Nc4ccccc43)cc2)cc1`, the IC50 against Acetylcholinesterase [1] was found to be 677 nM; on Cholinesterase it was 7900 nM. The Ratio IC50 in test [2] was determined as 11.7.

Consider `O=C1Nc2ccccc2/C1=C\c1cc[n+](Cc2c(F)cccc2Cl)cc1`, for which the values for the IC50 against Acetylcholinesterase [1] and at Cholinesterase were 4.1 nM and 2000 nM, respectively. For the same compound, the Ratio IC50 in test [2] turned out to be 488.

Take `O=C1Nc2ccccc2/C1=C\c1cc[n+](Cc2cccc(F)c2)cc1`: the IC50 against Acetylcholinesterase [1] was found to be 12.8 nM; against Cholinesterase it was 4500 nM. In addition, the Ratio IC50 in test [2] came out at 352.

For `Cc1cccc(C[n+]2ccc(/C=C3/C(=O)Nc4ccccc43)cc2)c1`, the IC50 came out at 5.2 nM on Acetylcholinesterase [1] and 1700 nM against Cholinesterase. Besides, the Ratio IC50 in test [2] was 327.

For `Cc1ccccc1C[n+]1ccc(/C=C2/C(=O)Nc3ccccc32)cc1`, the IC50 was found to be 15.3 nM against Acetylcholinesterase [1] and 887 nM against Cholinesterase. In addition, the Ratio IC50 in test [2] was 57.9.
